The values that follow come from patent publication US7919456B2, “Connective tissue derived polypeptides” (Proteobioactives Pty Ltd., priority 2003, dated 2011).

The subject of this assay is rat collagen induced arthritis (CIA) model. The assay can be described thus: Rat collagen induced arthritis (CIA), prophylactic/therapeutic protocol. The assay is classed as in vivo, Female Wistar rats. The following applies: 6.3 mg/kg SC.
Where [1] appears, read: 15 days treatment, n = 4, scored 0-4+.

Take `O=C(O)CC([S-])C(=O)O.[Au+]` (stereo not drawn) [ATM, aurothiomalate]: the “Signs of arthritis Day 15 Weight change” value is “+47 g” and the “Signs of arthritis Day 18 Weight change” value was “+04 g”. Besides, under setting [1], the “Mean arthritis scores Day 13” value is reported as 0.8, the “Mean arthritis scores Day 15” value came out at 2.1 and the “Mean arthritis scores Day 18” value worked out at 2.1. Under “fore paw”, the “Signs of arthritis Day 15 F/paw swell” value stood at 2.5 mm and the “Signs of arthritis Day 18 F/paw swell” value was found to be 3.2 mm. Moreover, for the setting “rear paw”, the “Signs of arthritis Day 15 R/paw swell” value came to 0.7 mm and the “Signs of arthritis Day 18 R/paw swell” value is given as 0.8 mm.
